Tests used:
CDK2/CyclinA = molecular target: T1, CDK2/CyclinA (Homo sapiens, UniProt P24941); assay: CDK2/cyclinA enzymatic activity inhibition assay (32P-ATP, histone H1); type: biochemical; conditions: mean of at least two independent experiments
T1 construct: hexa-histidine (N); made in house; host or cells: sf21 insect cells (baculovirus)

CDK4/CyclinD = CDK4/CyclinD (Homo sapiens, UniProt P11802); assay: CDK4/CyclinD inhibition assay; type: biochemical; conditions: mean of at least two independent experiments
[1] = molecular target: T2, human EGFR tyrosine kinase domain (Homo sapiens, UniProt P00533); assay: EGFR tyrosine kinase inhibition assay; type: biochemical; conditions: mean of at least two independent experiments
T2 construct: C-terminal human EGFR tyrosine kinase domain

A549/ATCC = assay: NCI primary anti-cancer assay (SRB), A549/ATCC; type: cell-based; conditions: Homo sapiens; 10^−5M; Non-Small Cell Lung Cancer A549/ATCC; read-out: Growth Inhibition %
Description: (§1) Evaluation of anti-cancer activities on pyrimido[4,5-d]pyrimidine derivatives were performed at the National Cancer Institute (NCI) USA. First the newly synthesized compounds have been evaluated in primary anti-cancer assay at 10^−5M concentration against 60 human tumor cell lines then the active compounds were tested at 5 different concentrations against the same 60 human tumor cell lines. The biological data for the newly synthesized compounds are compiled in table 2
(§2) The cytotoxic activity was measured in vitro for the newly synthesized compounds using the SulfoRhodamine-B stain (SRB) assay using the method of Skehan. Cells were plated in 96-multiwell microtiter plate (10^4 cells/well) for 24 h before treatment with the compound(s) to allow attachment of cell to the wall of the plate. Tested compounds were dissolved in DMSO and diluted with saline to the appropriate volume. Triplicate wells were prepared for each individual dose. Monolayer cells were incubated with the compound(s) for 48 h at 37 °C and in atmosphere of 5% CO2. After 48 h, cells were fixed, washed, and stained for 30 min with 0.4% (wt/vol) with SRB dissolved in 1% acetic acid. Unbound dye was removed by four washes with 1% acetic acid, and attached stain was recovered with Tris-EDTA buffer. Color intensity was measured in an ELISA reader. The relation between surviving fraction and drug concentration is plotted to get the survival curve for tumor cell line after the specified time.

HS 578T = assay: NCI primary anti-cancer assay (SRB), HS 578T; type: cell-based; conditions: Homo sapiens; 10^−5M; Breast Cancer HS 578T; read-out: Growth Inhibition %
Description: as §1, §2

T-47D = assay: NCI primary anti-cancer assay (SRB), T-47D; type: cell-based; conditions: Homo sapiens, T47D; 10^−5M; Breast Cancer T-47D; read-out: Growth Inhibition %
Description: as §1, §2

UO-31 = assay: NCI primary anti-cancer assay (SRB), UO-31; type: cell-based; conditions: Homo sapiens; 10^−5M; Renal Cancer UO-31; read-out: Growth Inhibition %
Description: as §1, §2

SNB-75 = assay: NCI primary anti-cancer assay (SRB), SNB-75; type: cell-based; conditions: Homo sapiens; 10^−5M; CNS Cancer SNB-75; read-out: Growth Inhibition %
Description: as §1, §2

HOP-92 = assay: NCI primary anti-cancer assay (SRB), HOP-92; type: cell-based; conditions: Homo sapiens; 10^−5M; Non-Small Cell Lung Cancer HOP-92; read-out: Growth Inhibition %
Description: as §1, §2

RXF 393 = assay: NCI primary anti-cancer assay (SRB), RXF 393; type: cell-based, human; conditions: Renal Cancer RXF 393; for inhibition at 10 µM: Homo sapiens, RXF 393, 10^−5M, read-out: Growth Inhibition %
Description: as §1, §2

BT-549 = assay: NCI primary anti-cancer assay (SRB), BT-549; type: cell-based; conditions: Homo sapiens; 10^−5M; Breast Cancer BT-549; read-out: Growth Inhibition %
Description: as §1
as §2, with “The relation between surviving fraction and drug concentration is plotted to get the survival curve for tumor cell line after the specified time.” left out

IGROV1 = assay: NCI primary anti-cancer assay (SRB), IGROV1; type: cell-based; conditions: Homo sapiens, IGROV-1; 10^−5M; Ovarian Cancer IGROV1; read-out: Growth Inhibition %
Description: as §1, §2

OVCAR-8 = assay: NCI primary anti-cancer assay (SRB), OVCAR-8; type: cell-based; conditions: Homo sapiens; 10^−5M; Ovarian Cancer OVCAR-8; read-out: Growth Inhibition %
Description: as §1, §2

K-562 = assay: NCI primary anti-cancer assay (SRB), K-562; type: cell-based; conditions: Homo sapiens, K562; 10^−5M; Leukemia K-562; read-out: Growth Inhibition %
Description: as §1, §2

MOLT-4 = assay: NCI primary anti-cancer assay (SRB), MOLT-4; type: cell-based; conditions: Homo sapiens; 10^−5M; Leukemia MOLT-4; read-out: Growth Inhibition %
Description: as §1, §2

MDA-MB-231/ATCC = assay: NCI primary anti-cancer assay (SRB), MDA-MB-231/ATCC; type: cell-based; conditions: Homo sapiens; 10^−5M; Breast Cancer MDA-MB-231/ATCC; read-out: Growth Inhibition %
Description: as §1, §2

HL-60(TB) = assay: NCI primary anti-cancer assay (SRB), HL-60(TB); type: cell-based; conditions: Homo sapiens; 10^−5M; Leukemia HL-60(TB); read-out: Growth Inhibition %
Description: as §1, §2

RPMI-8226 = assay: NCI primary anti-cancer assay (SRB), RPMI-8226; type: cell-based; conditions: Homo sapiens; 10^−5M; Leukemia RPMI-8226; read-out: Growth Inhibition %
Description: as §1, §2

UACC-257 = assay: NCI primary anti-cancer assay (SRB), UACC-257; type: cell-based; conditions: Homo sapiens; 10^−5M; Melanoma UACC-257; read-out: Growth Inhibition %
Description: as §1, §2

SF-539 = assay: NCI primary anti-cancer assay (SRB), SF-539; type: cell-based; conditions: Homo sapiens; 10^−5M; CNS Cancer SF-539; read-out: Growth Inhibition %
Description: as §1, §2

[2] = system: 60 human tumor cell lines; assay: NCI primary anti-cancer assay, summary over tumor cell lines; type: cell-based; conditions: 10^−5M, Non-small cell lung cancer, Ovarian cancer, Leukemia and Melanoma lines / different tumor cell lines, read-out: growth inhibitions (range over cell lines)
Description: as §1, §2

MCF7 = assay: NCI primary anti-cancer assay (SRB), MCF7; type: cell-based; conditions: Homo sapiens; 10^−5M; Breast Cancer MCF7; read-out: Growth Inhibition %
Description: as §1
as §2, with “The relation between surviving fraction and drug concentration is plotted to get the survival curve for tumor cell line after the specified time.” left out

Chain of CDK4/CyclinD (P11802 whole entry, species assumed, the tested form may be a part): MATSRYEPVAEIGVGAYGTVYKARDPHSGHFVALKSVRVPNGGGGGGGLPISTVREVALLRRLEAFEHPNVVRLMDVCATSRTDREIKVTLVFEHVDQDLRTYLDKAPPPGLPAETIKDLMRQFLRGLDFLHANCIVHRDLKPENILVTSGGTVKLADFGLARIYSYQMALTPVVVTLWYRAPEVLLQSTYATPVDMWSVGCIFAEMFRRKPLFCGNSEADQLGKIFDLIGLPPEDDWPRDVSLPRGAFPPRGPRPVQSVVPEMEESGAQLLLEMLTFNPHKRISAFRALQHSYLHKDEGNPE
Chain of CDK4/CyclinD (P24385 whole entry partner, species assumed, the tested form may be a part): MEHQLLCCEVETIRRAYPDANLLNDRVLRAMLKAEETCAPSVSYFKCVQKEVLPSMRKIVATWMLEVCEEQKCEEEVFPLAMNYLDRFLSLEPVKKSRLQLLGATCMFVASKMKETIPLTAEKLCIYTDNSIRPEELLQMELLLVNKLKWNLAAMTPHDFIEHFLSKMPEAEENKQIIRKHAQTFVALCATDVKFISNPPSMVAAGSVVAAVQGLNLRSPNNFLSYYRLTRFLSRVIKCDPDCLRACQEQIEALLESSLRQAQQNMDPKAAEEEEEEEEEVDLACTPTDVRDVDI
T2 sequence (P00533 712-979 limits assumed): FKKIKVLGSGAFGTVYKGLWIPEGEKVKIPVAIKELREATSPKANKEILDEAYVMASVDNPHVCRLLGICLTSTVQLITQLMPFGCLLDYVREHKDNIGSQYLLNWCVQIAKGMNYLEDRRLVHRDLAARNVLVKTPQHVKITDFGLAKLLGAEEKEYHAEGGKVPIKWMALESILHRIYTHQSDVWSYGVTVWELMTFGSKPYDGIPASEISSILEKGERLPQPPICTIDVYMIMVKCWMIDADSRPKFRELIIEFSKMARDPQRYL

| SMILES | IC50 (CDK2/CyclinA) | IC50 (CDK4/CyclinD) | IC50 CDK4/CyclinD (CDK4/CyclinD) | IC50 [1] | inhibition at 10 µM (A549/ATCC) | inhibition at 10 µM (T-47D) | inhibition at 10 µM (UO-31) | inhibition at 10 µM (SNB-75) | melting point | inhibition at 10 µM (HOP-92) | inhibition at 10 µM (RXF 393) | inhibition at 10 µM (IGROV1) | inhibition at 10 µM (OVCAR-8) | inhibition at 10 µM (K-562) | inhibition at 10 µM (MOLT-4) | inhibition at 10 µM (MDA-MB-231/ATCC) | inhibition at 10 µM (HL-60(TB)) | inhibition at 10 µM (RPMI-8226) | inhibition at 10 µM (UACC-257) | also measured |
| --- | --- | --- | --- | --- | --- | --- | --- | --- | --- | --- | --- | --- | --- | --- | --- | --- | --- | --- | --- | --- |
| Cc1cc(C)nc(NS(=O)(=O)c2ccc(Nc3nc(C)c4c(=O)[nH]c(Nc5ccc(S(=O)(=O)O)cc5)nc4n3)cc2)n1 [Compound 7i, 4-{[7-({4-[(4,6-Dimethylpyrimidin-2-yl)sulfamoyl]phenyl}amino)-5-methyl-4-oxo-3,4-dihydro-pyrimido[4,5-d]pyrimidin-2-yl]amino}benzenesulfonic acid] | > 10 µM | > 10 µM | no activity | 8.1 µM | 39.1% | 30.1% | 30.6% | 23.2% | > 300 °C | – | – | – | – | – | – | – | – | – | – | inhibition at 10 µM (HS 578T): 26.2% |
| O=c1[nH]c(SCc2ccccc2)nc2nc(Nc3ccc(NC(=S)Nc4ccccc4)cc3)nc(-c3ccc(O)cc3O)c12 [Compound 6a, 1-(4-{[7-(Benzylsulfanyl)-4-(2,4-dihydroxyphenyl)-5-oxo-5,6-dihydro-pyrimido[4,5-d]pyrimidin-2-yl]amino}phenyl)-3-phenylthiourea] | 5 µM | > 10 µM | no activity | 9.3 µM | – | 26.9% | – | – | > 300 °C | 103% | 33.8% | – | – | – | – | – | – | – | – | – |
| Cc1cc(C)nc(NS(=O)(=O)c2ccc(Nc3nc(-c4ccc(O)cc4O)c4c(=O)[nH]c(SCc5ccccc5)nc4n3)cc2)n1 [Compound 6b, 4-{[7-(Benzylsulfanyl)-4-(2,4-dihydroxyphenyl)-5-oxo-5,6-dihydropyrimido[4,5-d]pyrimidin-2-yl]amino}-N-(4,6-dimethylpyrimidin-2-yl)benzenesulfonamide] | 2.8 µM | 2.14 µM | – | 5.5 µM | – | – | – | – | > 300 °C | – | – | 30.7% | 38.7% | 20.1% | – | – | – | – | – | inhibition at 10 µM (BT-549): 29.1% |
| Cc1cc(C)nc(NS(=O)(=O)c2ccc(Nc3nc(C)c4c(=O)[nH]c(SCc5ccccc5)nc4n3)cc2)n1 [Compound 6d, 4-{[7-(Benzylsulfanyl)-4-methyl-5-oxo-5,6-dihydropyrimido[4,5-d]pyrimidin-2-yl]amino}-N-(4,6-dimethylpyrimidin-2-yl)benzenesulfonamide] | 2.5 µM | 0.66 µM | – | 7.8 µM | 21.2% | – | – | – | > 300 °C | 27% | – | – | – | – | 43.4% | – | – | – | – | – |
| Cc1nc(Nc2ccc(NC(=S)Nc3ccccc3)cc2)nc2nc(SCc3ccccc3)[nH]c(=O)c12 [Compound 6c, 1-(4-{[7-(Benzylsulfanyl)-4-methyl-5-oxo-5,6-dihydropyrimido[4,5-d]pyrimidin-2-yl]amino}-phenyl)-3-phenylthiourea] | 1.5 µM | 3.11 µM | – | > 10 µM | 42.1% | – | – | – | > 300 °C | – | 124% | 34.3% | – | 27.9% | – | 23.1% | 24% | 33% | 25.2% | Growth Inhibition % (RXF 393; 10^−5M): 124.01%; inhibition at 10 µM (SF-539): 36.7% |
| Cc1nc(Nc2ccc(NC(=S)Nc3ccccc3)cc2)nc2nc(Nc3cccc(Cl)c3)[nH]c(=O)c12 [Compound 7e, 1-[4-({7-[(3-Chlorophenyl)amino]-4-methyl-5-oxo-5,6-dihydropyrimido[4,5-d]pyrimidin-2-yl}amino)phenyl]-3-phenylthiourea] | 0.25 µM | 2.55 µM | – | 4.9 µM | – | – | – | – | – | 39.6% | 113% | – | – | 28.2% | 35% | – | 42.9% | 42.8% | – | inhibition at 10 µM (HS 578T): 32.9%; inhibition at 10 µM (SF-539): 23.5% |
| Cc1cc(C)nc(NS(=O)(=O)c2ccc(Nc3nc(C)c4c(=O)[nH]c(NCc5ccccc5)nc4n3)cc2)n1 [Compound 7c, 4-{[7-(Benzylamino)-4-methyl-5-oxo-5,6-dihydropyrimido[4,5-d]pyrimidin-2-yl]amino}-N-(4,6-dimethylpyrimidin-2-yl)benzenesulfonamide] | 2.6 µM | > 10 µM | no activity | 6.6 µM | 64.4% | 23.4% | 39.5% | 43.1% | – | – | – | 61.7% | – | 32.8% | 22.6% | – | 23.1% | 50.7% | 71.4% | inhibition at 10 µM [2]: 50 to 70% |
| O=c1[nH]c(Nc2ccc(S(=O)(=O)O)cc2)nc2nc(Nc3ccc(NC(=S)Nc4ccccc4)cc3)nc(-c3ccc(O)cc3O)c12 [Compound 7g, 4-{[5-(2,4-Dihydroxyphenyl)-4-oxo-7-({4-[(phenylcarbamothioyl)amino]phenyl}amino)-3,4-dihydropyrimido[4,5-d]pyrimidin-2-yl]amino}benzenesulfonic acid] | 6.5 µM | 5.21 µM | very poor activity | 7.3 µM | – | – | – | – | > 300 °C | 29.1% | – | – | – | 20.1% | – | – | – | – | 32.7% | inhibition at 10 µM (MCF7): 33.3% |
| O=c1[nH]c(Nc2cccc(Cl)c2)nc2nc(Nc3ccc(NC(=S)Nc4ccccc4)cc3)nc(-c3ccc(O)cc3O)c12 [Compound 7d, 1-[4-({7-[(3-Chlorophenyl)amino]-4-(2,4-dihydroxyphenyl)-5-oxo-5,6-dihydro-pyrimido[4,5-d]pyrimidin-2-yl}amino)phenyl]-3-phenylthiourea] | > 10 µM | 6.88 µM | very poor activity | > 10 µM | 44.7% | – | 30.7% | – | > 300 °C | – | – | 39.7% | 26.8% | – | – | 21.4% | – | 30.4% | 79.5% | – |
| Cc1cc(C)nc(NS(=O)(=O)c2ccc(Nc3nc(C)c4c(=O)[nH]c(Nc5cccc(Cl)c5)nc4n3)cc2)n1 [Compound 7f, 4-({7-[(3-Chlorophenyl)amino]-4-methyl-5-oxo-5,6-dihydropyrimido[4,5-d]pyrimidin-2-yl}amino)-N-(4,6-dimethylpyrimidin-2-yl)benzenesulfonamide] | 0.05 µM | 0.86 µM | – | > 10 µM | 52% | – | 40.3% | 28.5% | > 300 °C | 34.8% | – | 54.4% | 21.8% | 26.5% | – | 30.4% | 21.6% | 58.9% | 57.9% | inhibition at 10 µM [2]: 50 to 70% |

From publication PMC3163380, “Design, Synthesis and Biological Evaluation of Novel Pyrimido[4,5-d]pyrimidine CDK2 Inhibitors as Anti-Tumor Agents” (Scientia Pharmaceutica, 2011)
